Measurements published in patent publication US5312919A, “Photooxidation products and derivatives thereof of merocyanine-540, their preparation and uses” (priority 1992, dated 1994).
Read-outs that look alike come from different tables or passages of the source.

Columns and labels:
[1] = test system: JEG-3 (choriocarcinoma, human); assay: Inhibition of cell proliferation, JEG-3 (MTT assay); type: cell-based; settings: read-out: % inhibition of cell proliferation
Protocol: (§1) Preactivated MC 540 is abbreviated as pMC 540. […] 52: 831-38 (1990); and T. Mosmann, J. Immulog. Methods 65: 55-63 (1983).
(§2) Each cell type (1×10^6 cells/ml; in triplicate) was treated with indicated concentrations of merocil or merodantoin. After overnight (20 hr.) or 5 day incubation periods, the cell viability was determined by MTT assay and calculated as a percentage of untreated controls. The toxicity in vehicle only (cremophor EL) controls was not detectable at highest dose tested.

[2] = test system: BT-20 (breast, adenocarcinoma); assay: Inhibition of cell proliferation, BT-20 (MTT assay); type: cell-based; settings: Homo sapiens, read-out: % inhibition of cell proliferation
Description: Preactivated MC 540 is abbreviated as pMC 540. […] 52: 831-38 (1990); and T. Mosmann, J. Immulog. Methods 65: 55-63 (1983). […]

[3] = test system: human Burkitt lymphoma Daudi cells; assay: Cytotoxic effects on human Burkitt lymphoma Daudi cells (MTT assay); type: cell-based
Protocol: Human Burkitt Lymphoma Daudi cells (1×10^6 cells/ml) were treated with different concentrations of Merodantoin. After overnight incubation at 37° C., the tumor cells kill was determined by MTT assay.
Human Burkitt Lymphoma Daudi cells (1×10^6 cells/ml) were treated with different concentrations of Merocil. After overnight incubation at 37° C., the tumor cells kill was determined by MTT assay.
Each cell type (1×10^6 cells/ml; in triplicate) was treated with indicated concentrations of Merocil or Merodantoin. After overnight (20 hr.) or 5 day incubation periods, the cell viability was determined by MTT assay and calculated as a percentage of untreated controls.

[4] = test system: MT-4 cells; assay: Effect on viability of MT-4 cells; type: cell-based; settings: experimental conditions of Table 8
Protocol: (§3) Cell free human immunodeficiency virus (HIV-1) was either left untreated or treated with indicated doses of Merocil or Merodantoin for one hour at 37° C. and added to MT-4 target cells. After 4 hour incubation at 37° C., the cells were washed three times and further incubated in drug free fresh growth medium (complete RPMI-1640) at 37° C. for 4 days. On day four, 50% of the culture supernatant was replaced with fresh growth medium to prevent cell death due to possible nutrient depletion. The viability of the cell was determined on day 11 by MTT assay. […] The viability of the MT-4 cells was not affected by Merocil or Merodantoin under the experimental conditions described above.

[5] = test system: DU 145 (prostate, carcinoma, human); assay: Inhibition of cell proliferation, DU 145 (MTT assay); type: cell-based; settings: read-out: % inhibition of cell proliferation
Protocol: as §1, §2

[6] = test system: C-33A (carcinoma cervix, human); assay: Inhibition of cell proliferation, C-33A (MTT assay); type: cell-based; settings: read-out: % inhibition of cell proliferation
Protocol: as §1, §2

[7] = test system: certain tumor cells; assay: Inhibition of proliferation of tumor cells (overall conclusion); type: cell-based
Description: as §1

[8] = test system: 8226 (multiple myeloma); assay: Inhibition of cell proliferation, 8226 (MTT assay); type: cell-based; settings: 24 h, read-out: % inhibition of cell proliferation
Protocol: as §1
(§4) Each cell type (1×10^6 cells/ml; in triplicate) was treated with indicated concentrations of merocil or merodantoin. […] The cytotoxicity in vehicle only (cremophor EL) controls was not detectable at highest dose tested.

[9] = test system: MS 751 (cervix, carcinoma, human); assay: Inhibition of cell proliferation, MS 751 (MTT assay); type: cell-based; settings: read-out: % inhibition of cell proliferation
Protocol: as §1, §2

[10] = test system: L1210 mouse leukemia cells; assay: Combined effect on L1210 mouse leukemia cells (MTT assay); settings: MC = 12.5 μg/ml; MD = 25 μg/ml; MZ = 25 μg/ml; overnight
Protocol: The biological activities of the photooxidation products of MC 540 were determined. Preactivated MC 540 is abbreviated as pMC 540. Assays of antitumor activities of the products were carried out according to published standard methods.
Mouse leukemia L1210 cells (1 × 10^6 cells/ml) were treated wit
different combinations of the indicated compounds (isolated from
preactivated merocyanine 540). After overnight incubation the cell kill

[11] = test system: U266B1 (myeloma); assay: Inhibition of cell proliferation, U266B1 (MTT assay); type: cell-based; settings: 24 h, read-out: % inhibition of cell proliferation
Protocol: as §1, §4

[12] = Cytotoxicity on normal human peripheral blood mononuclear cells (trypan blue dye exclusion); type: cell-based; settings: human, peripheral blood mononuclear cells, overnight, 37° C., read-out: % cell kill (mean ± S.E.M.)
Protocol: (§5) Preactivated MC 540 is abbreviated as pMC 540.
(§6) Merocil and Merodantoin were dissolved in cremophor EL whereas pMC 540 was prepared in 10% aqueous ethanol. […] Fresh human peripheral mononucleas cells (1×10^6 cells/ml) were treated with indicated concentration of compounds. After overnight incubation at 37° C., cell viability was determined by trypan blue dye exclusion method.

[13] = test system: normal human peripheral blood mononuclear cells; assay: as above; type: cell-based; settings: doses of Table 1
Protocol: as §5, §6

[14] = test system: human immunodeficiency virus (HIV-1); assay: Inactivation of cell free human immunodeficiency virus (viability of MT-4 target cells, MTT assay); type: cell-based
Protocol: as §1, §3

[15] = test system: H.S. Sultan (multiple myeloma); assay: Inhibition of cell proliferation, H.S. Sultan (MTT assay); type: cell-based; settings: 24 h, read-out: % inhibition of cell proliferation
Protocol: as §1, §4

[16] = Homo sapiens, Daudi, read-out: % Cell Kill (means ± S.D.)

CCCCN1C(=O)C(O)(OC)C(=O)N(CCCC)C1=S [Merocil, N,N'-Dibutyl-4,5 dihydro-5-hydroxy-5-methoxy-4-oxo-2-thiouracil]
inhibition at 0.78 µg/mL ([1]; JEG-3, 20 h): 0% | inhibition at 1.56 µg/mL ([1]; JEG-3, 20 h): 3% | inhibition at 3.13 µg/mL ([1]; JEG-3, 20 h): 32% | inhibition at 6.25 µg/mL ([1]; JEG-3, 20 h): 68% | inhibition at 12.5 µg/mL ([1]; JEG-3, 20 h): 86% | inhibition at 0.78 µg/mL ([1]; JEG-3, 120 h): 8% | inhibition at 1.56 µg/mL ([1]; JEG-3, 120 h): 11% | inhibition at 3.13 µg/mL ([1]; JEG-3, 120 h): 11% | inhibition at 6.25 µg/mL ([1]; JEG-3, 120 h): 51% | inhibition at 12.5 µg/mL ([1]; JEG-3, 120 h): 86% | inhibition at 0.78 µg/mL ([2]; BT-20, 48 h): 3% | inhibition at 1.56 µg/mL ([2]; BT-20, 48 h): 0% | inhibition at 3.13 µg/mL ([2]; BT-20, 48 h): 2% | inhibition at 6.25 µg/mL ([2]; BT-20, 48 h): 0% | inhibition at 12.5 µg/mL ([2]; BT-20, 48 h): 11% | inhibition at 0.78 µg/mL ([2]; BT-20, 96 h): 11% | inhibition at 1.56 µg/mL ([2]; BT-20, 96 h): 22% | inhibition at 3.13 µg/mL ([2]; BT-20, 96 h): 41% | inhibition at 6.25 µg/mL ([2]; BT-20, 96 h): 20% | inhibition at 12.5 µg/mL ([2]; BT-20, 96 h): 8% | growth inhibition of cultured Daudi lymphoma cells ([3]; 12.5 μg/ml): virtually complete growth inhibition | cytotoxicity at 0.78 µg/mL [3, 16]: 4.75 ± 3.2% | cytotoxicity at 1.56 µg/mL [3, 16]: 16.5 ± 9.45% | cytotoxicity at 3.13 µg/mL [3, 16]: 36.8 ± 16.1% | cytotoxicity at 6.25 µg/mL [3, 16]: 87.2 ± 9.9% | cytotoxicity at 12.5 µg/mL [3, 16]: 100% | viability of the MT-4 cells [4]: not affected | inhibition at 0.78 µg/mL ([5]; DU-145, 20 h): 0% | inhibition at 1.56 µg/mL ([5]; DU-145, 20 h): 0% | inhibition at 3.13 µg/mL ([5]; DU-145, 20 h): 0% | inhibition at 6.25 µg/mL ([5]; DU-145, 20 h): 5% | inhibition at 12.5 µg/mL ([5]; DU-145, 20 h): 3% | inhibition at 0.78 µg/mL ([5]; DU-145, 120 h): 26% | inhibition at 1.56 µg/mL ([5]; DU-145, 120 h): 33% | inhibition at 3.13 µg/mL ([5]; DU-145, 120 h): 71% | inhibition at 12.5 µg/mL ([5]; DU-145, 120 h): 93% | inhibition at 0.78 µg/mL ([6]; 20 h): 2% | inhibition at 1.56 µg/mL ([6]; 20 h): 9% | inhibition at 3.13 µg/mL ([6]; 20 h): 35% | inhibition at 6.25 µg/mL ([6]; 20 h): 36% | inhibition at 12.5 µg/mL ([6]; 20 h): 49% | inhibition at 0.78 µg/mL ([6]; 120 h): 23% | inhibition at 1.56 µg/mL ([6]; 120 h): 26% | inhibition at 3.13 µg/mL ([6]; 120 h): 46% | inhibition at 6.25 µg/mL ([6]; 120 h): 89% | inhibition at 12.5 µg/mL ([6]; 120 h): 97% | inhibiting the proliferation of certain tumor cells [7]: effective | inhibition at 0.78 µg/mL [8]: 17% | inhibition at 1.56 µg/mL [8]: 24% | inhibition at 3.13 µg/mL [8]: 26% | inhibition at 6.25 µg/mL [8]: 25% | inhibition at 12.5 µg/mL [8]: 55% | inhibition at 0.78 µg/mL ([9]; MS751, 20 h): 1% | inhibition at 1.56 µg/mL ([9]; MS751, 20 h): 7% | inhibition at 3.13 µg/mL ([9]; MS751, 20 h): 12% | inhibition at 6.25 µg/mL ([9]; MS751, 20 h): 20% | inhibition at 12.5 µg/mL ([9]; MS751, 20 h): 20% | inhibition at 0.78 µg/mL ([9]; MS751, 120 h): 10% | inhibition at 1.56 µg/mL ([9]; MS751, 120 h): 11% | inhibition at 3.13 µg/mL ([9]; MS751, 120 h): 12% | inhibition at 6.25 µg/mL ([9]; MS751, 120 h): 29% | inhibition at 12.5 µg/mL ([9]; MS751, 120 h): 89% | % Cell Kill [10]: 28% | inhibition at 0.78 µg/mL [11]: 3% | inhibition at 1.56 µg/mL [11]: 6% | inhibition at 3.13 µg/mL [11]: 21% | inhibition at 6.25 µg/mL [11]: 8% | inhibition at 12.5 µg/mL [11]: 8% | cytotoxicity ([12]; 0.78 μg/ml): 2.67 ± 0.8% | cytotoxicity ([12]; 1.56 μg/ml): 5 ± 0.67% | cytotoxicity ([12]; 3.13 μg/ml): 4 ± 0.67% | cytotoxicity ([12]; 6.25 μg/ml): 6% | cytotoxicity ([12]; 12.5 μg/ml): 5 ± 0.71% | toxicity to normal human peripheral blood mononuclear cells [13]: relatively non-toxic | inactivation of cell free HIV ([14]; 75 μg/ml dose): virtually complete inactivation of the virus | inactivating human immunodeficiency virus (HIV-1) ([14]; conclusion): effective | inhibition at 0.78 µg/mL [15]: 23% | inhibition at 1.56 µg/mL [15]: 28% | inhibition at 3.13 µg/mL [15]: 24% | inhibition at 6.25 µg/mL [15]: 63% | inhibition at 12.5 µg/mL [15]: 68%

CC1(O)Oc2ccccc2N1CCCS(=O)(=O)O (centres unmarked) [Meroxazole, 2-Hydroxy-2-methyl-3-[3'-sulfopropyl]-benzoxazolin]
cytotoxicity at 25 µg/mL ([3]; Homo sapiens, Daudi, 25 μg/ml, representative experiment, read-out: % Cell Kill): 0% | cytotoxicity at 50 µg/mL ([3]; Homo sapiens, Daudi, 50 μg/ml, representative experiment, read-out: % Cell Kill): 0% | cytotoxicity at 75 µg/mL ([3]; Homo sapiens, Daudi, 75 μg/ml, representative experiment, read-out: % Cell Kill): 0% | cytotoxicity at 100 µg/mL ([3]; Homo sapiens, Daudi, 100 μg/ml, representative experiment, read-out: % Cell Kill): 0% | cytotoxicity at 125 µg/mL ([3]; Homo sapiens, Daudi, 125 μg/ml, representative experiment, read-out: % Cell Kill): 0% | cytotoxicity at 500 µg/mL ([3]; Homo sapiens, Daudi, 500 μg/ml, representative experiment, read-out: % Cell Kill): 32% | cytotoxicity to Daudi cells (conclusion) ([3]; doses of Table 7): not cytotoxic | % Cell Kill [10]: Zero
